Measured values: PMC3088537, “Production, purification, sequencing and activity spectra of mutacins D-123.1 and F-59.1” (BMC Microbiology, 2011)
Marks after values point to notes of the source that are not given here. Bridge positions count the residues as written; N and C are the ends. Ends that are not written are not given here.

Key:
[1] = system: L. monocytogenes FRDC 1039; experiment: Inhibitory spectrum, critical dilution with spot test; format: cell-based, Listeria monocytogenes; details: purified mutacin, 5 μL spotted on soft agar lawn on TSAYE; reciprocal of highest dilution showing inhibition zone
Procedure: (§1) Streptococcus mutans 59.1 and 123.1 produce mutacins F-59.1 and D-123.1 respectively. Micrococcus luteus ATCC 272 (ATCC, Manassas, VA, USA) was used as the indicator strain for the mutacin activity assays. All bacteria were routinely grown aerobically at 37°C in TSBYE made of TSB (Difco laboratories, Detroit, MI, USA) supplemented with 0.3% yeast extract (Becton Dickinson & Co., Cockeysville, MD, USA) or on TSAYE plates made of TSA (Difco) enriched with 0.3% yeast extract. Lactobacillus salivarius strain (provided by Sylvain Moineau, Université Laval, Québec, QC, Canada) was cultivated aerobically at 30°C in MRS medium (Oxoid, Nepean, ON, Canada). Other bacterial strains used for the inhibitory spectra determination are described in Mota-Meira et al. and Morency et al.. Staphylococcus carnosus was obtained from the strain collection of the Department of Microbiology, Biochemistry and Bioinformatics (Université Laval).
(§2) Mutacin activity was determined by the spot test using Micrococcus luteus ATCC 272 as sensitive strain where two-fold dilutions were prepared in acidified (pH 2) peptone water (0.5%). Antibacterial activity spectra of purified mutacins was tested against a panel of bacterial strains using the critical dilution method combined with the spot test method as described previously. Briefly, overnight cultures of test strains in TSBYE were diluted in fresh broth before inoculating 5 mL of soft agar (0.75%) in order to obtain confluent lawns of growth on TSAYE plates. Five μL of purified mutacins, diluted in acidified (10 mM HCl) distilled water to promote solubility of the peptides, were deposited on the lawn and allowed to dry before appropriate incubation. Mutacin activity was expressed in AU/mL and corresponds to the reciprocal of the highest dilution showing a noticeable inhibition zone on the lawn.

[2] = system: L. monocytogenes ATCC 700301 ScottA; experiment: as above; format: cell-based, Listeria monocytogenes; details: purified mutacin, 5 μL spotted on soft agar lawn on TSAYE; reciprocal of highest dilution showing inhibition zone
Procedure: as §1, §2

[3] = system: L. monocytogenes FRDC 88571; experiment: as above; format: cell-based, Listeria monocytogenes; details: purified mutacin, 5 μL spotted on soft agar lawn on TSAYE; reciprocal of highest dilution showing inhibition zone
Procedure: as §1, §2

[4] = system: L. monocytogenes ATCC 700302 ScottA; experiment: as above; format: cell-based, Listeria monocytogenes; details: purified mutacin, 5 μL spotted on soft agar lawn on TSAYE; reciprocal of highest dilution showing inhibition zone
Procedure: as §1, §2

S. aureus ATCC 25923 = experiment: as above; format: cell-based, Staphylococcus aureus; details: purified mutacin, 5 μL spotted on soft agar lawn on TSAYE; reciprocal of highest dilution showing inhibition zone
Procedure: as §1, §2

S. aureus R621 = experiment: as above; format: cell-based, Staphylococcus aureus; details: purified mutacin, 5 μL spotted on soft agar lawn on TSAYE; reciprocal of highest dilution showing inhibition zone
Procedure: as §1, §2

S. aureus ATCC 43300 = experiment: as above; format: cell-based, Staphylococcus aureus; details: purified mutacin, 5 μL spotted on soft agar lawn on TSAYE; reciprocal of highest dilution showing inhibition zone
Procedure: as §1, §2

[5] = system: Micrococcus luteus ATCC 272; experiment: Mutacin activity assay (spot test) of preparations during production and purification; format: cell-based
Procedure: as §1
(§3) Purification of the two mutacins was achieved by two hydrophobic chromatography steps as previously described by replacing TFA with HCl (10 mM). Briefly, the active preparation was loaded on a Sep-Pak® Vac 35 cc (10 g) t-C18 Cartridge (Waters Corporation, Milford, MA, USA). Cartridges were first equilibrated with 500 mL of methanol followed by 500 mL of deionized distilled water. Antibacterial compounds were eluted with successive steps of 500 mL of water:methanol mixtures increasing the gradient of methanol by 10% from 0 to 100% in 10 mM HCl. This was carried out at a flow rate of 1 mL/min and UV detection at 214 nm. The final purification step was carried out by reverse phase chromatography (RP)-HPLC analysis (Beckman Gold Model, Coulter Canada Inc., Mississauga, ON, Canada) using an analytical C18 column (Luna 5 μ C18(2), 250 × 4.6 mm, 4 × 3.0 mm, Phenomenex, Torrance, CA, USA). Elution was carried out with solvent A (5% acetonitrile, 10 mM HCl) and solvent B (60% acetonitrile, 10 mM HCl) and recorded at 214 nm. The following program of elution was developed: 0 to 3 min, constant 100% A; 3 to 15 min, a linear gradient from 100% A to 100% B; 15 to 20 min, constant 100% B; 20 to 23 min, a linear gradient from 100% B to 100% A. A flow rate of 1 mL/min was used. The column was maintained at 39°C with a column heater. Active fractions were manually collected, subsequently dried in a Speed-Vac® concentrator (Model SC110A, Savant Instrument Inc. Farmingdale, NY, USA) and then kept at -20°C until processing. Protein concentration in active fractions was determined using the BioRad DC protein assay (BioRad, Mississauga, ON, Canada).
as §2

[6] = system: Micrococcus luteus ATCC 272; experiment: Inhibitory effect of mutacin F-59.1 on viable count (time-kill); format: cell-based
Procedure: One milliliter of active preparation (1600 AU/mL) adjusted to pH 7.0 was filter sterilised then added to 10 mL of an early-log-phase culture of Micrococcus luteus ATCC 272 grown in TSBYE. Bacterial culture in TSBYE was used as a negative control. The viable count in CFU/mL was determined at intervals for up to 24 h for samples and control during incubation at 37°C by plating 100 μL of an appropriate dilution in peptone water (0.1%) on TSAYE incubated at 37°C at least 24 h.

L. murrayi HPB 30 = experiment: Inhibitory spectrum, critical dilution with spot test; format: cell-based, Listeria murrayi; details: purified mutacin, 5 μL spotted on soft agar lawn on TSAYE; reciprocal of highest dilution showing inhibition zone
Procedure: as §1
Mutacin activity was determined by the spot test using Micrococcus luteus ATCC 272 as sensitive strain where two-fold dilutions were prepared in acidified (pH 2) peptone water (0.5%). Antibacterial activity spectra of purified mutacins was tested against a panel of bacterial strains using the critical dilution method combined with the spot test method as described previously. […]

[7] = Hydrophobic chromatography elution (Sep-Pak t-C18, methanol steps) as measure of hydrophobicity; format: physicochemical; details: Sep-Pak t-C18 cartridge, water:methanol steps of 10% from 0 to 100% in 10 mM HCl; used as indication of hydrophobicity
Procedure: as §3, with “The column was maintained at 39°C with a column heater. Active fractions were manually collected, subsequently dried in a Speed-Vac® concentrator (Model SC110A, Savant Instrument Inc. Farmingdale, NY, USA) and then kept at -20°C until processing.” left out

Streptococcus salivarius = experiment: Inhibitory spectrum, critical dilution with spot test; format: cell-based; details: purified mutacin, 5 μL spotted on soft agar lawn on TSAYE; reciprocal of highest dilution showing inhibition zone
Procedure: as §1, §2

[8] = system: Bacillus subtilis ATCC 6051; experiment: as above; format: cell-based; details: purified mutacin, 5 μL spotted on soft agar lawn on TSAYE; reciprocal of highest dilution showing inhibition zone
Procedure: as §1, §2

[9] = system: Streptococcus suis serotype 2; experiment: as above; format: cell-based; details: purified mutacin, 5 μL spotted on soft agar lawn on TSAYE; reciprocal of highest dilution showing inhibition zone
Procedure: as §1, §2

[10] = system: Lactococcus lactis ATCC 11454; experiment: as above; format: cell-based; details: purified mutacin, 5 μL spotted on soft agar lawn on TSAYE; reciprocal of highest dilution showing inhibition zone
Procedure: as §1, §2

Staphylococcus carnosus = experiment: as above; format: cell-based; details: purified mutacin, 5 μL spotted on soft agar lawn on TSAYE; reciprocal of highest dilution showing inhibition zone
Procedure: as §1, §2

[11] = system: Streptococcus pyogenes ATCC 10389; experiment: as above; format: cell-based; details: purified mutacin, 5 μL spotted on soft agar lawn on TSAYE; reciprocal of highest dilution showing inhibition zone
Procedure: as §1, §2

[12] = system: Enterococcus faecium ATCC 19434; experiment: as above; format: cell-based; details: purified mutacin, 5 μL spotted on soft agar lawn on TSAYE; reciprocal of highest dilution showing inhibition zone
Procedure: as §1, §2

[13] = system: Listeria monocytogenes ATCC 15313; experiment: as above; format: cell-based; details: purified mutacin, 5 μL spotted on soft agar lawn on TSAYE; reciprocal of highest dilution showing inhibition zone
Procedure: as §1, §2

[14] = system: Staphylococcus aureus ATCC 6538; experiment: as above; format: cell-based; details: purified mutacin, 5 μL spotted on soft agar lawn on TSAYE; reciprocal of highest dilution showing inhibition zone
Procedure: as §1, §2

[15] = system: Listeria murrayi ATCC 25420; experiment: as above; format: cell-based; details: purified mutacin, 5 μL spotted on soft agar lawn on TSAYE; reciprocal of highest dilution showing inhibition zone
Procedure: as §1, §2

[16] = system: Pediococcus acidilactici UL5; experiment: as above; format: cell-based; details: purified mutacin, 5 μL spotted on soft agar lawn on TSAYE; reciprocal of highest dilution showing inhibition zone
Procedure: as §1, §2

[17] = system: Enterococcus faecalis ATCC 27235; experiment: as above; format: cell-based; details: purified mutacin, 5 μL spotted on soft agar lawn on TSAYE; reciprocal of highest dilution showing inhibition zone
Procedure: as §1, §2

Listeria ivanovii HPB 28 = experiment: as above; format: cell-based; details: purified mutacin, 5 μL spotted on soft agar lawn on TSAYE; reciprocal of highest dilution showing inhibition zone
Procedure: as §1, §2

[18] = system: Micrococcus luteus ATCC 272; experiment: as above; format: cell-based; details: purified mutacin, 5 μL spotted on soft agar lawn on TSAYE; reciprocal of highest dilution showing inhibition zone
Procedure: as §1, §2

[19] = system: Listeria grayi ATCC 19120; experiment: as above; format: cell-based; details: purified mutacin, 5 μL spotted on soft agar lawn on TSAYE; reciprocal of highest dilution showing inhibition zone
Procedure: as §1, §2

[20] = system: Lactobacillus salivarius SMQ 876; experiment: as above; format: cell-based; details: purified mutacin, 5 μL spotted on soft agar lawn; reciprocal of highest dilution showing inhibition zone
Procedure: as §1, §2

Bacillus cereus ATCC 2 = experiment: as above; format: cell-based; details: purified mutacin, 5 μL spotted on soft agar lawn on TSAYE; reciprocal of highest dilution showing inhibition zone
Procedure: as §1, §2

[21] = system: Streptococcus sobrinus ATCC 27352; experiment: as above; format: cell-based; details: purified mutacin, 5 μL spotted on soft agar lawn on TSAYE; reciprocal of highest dilution showing inhibition zone
Procedure: as §1, §2

[22] = system: Enterococcus hirae ATCC 8043; experiment: as above; format: cell-based; details: purified mutacin, 5 μL spotted on soft agar lawn on TSAYE; reciprocal of highest dilution showing inhibition zone
Procedure: as §1, §2

KYYGNGVTCGKHSCSVDWSKATTNI (disulfide 9-14 (inferred)) [mutacin F-59.1, pediocin-like (class IIa) bacteriocin of 25 amino acids produced by Streptococcus mutans 59.1; UniProt P86386]
Activity of mutacin against L. monocytogenes FRDC 1039 [1]: 200^b AU/mL
Activity of mutacin against L. monocytogenes ATCC 700301 ScottA [2]: 200^b AU/mL
Activity of mutacin against L. monocytogenes FRDC 88571 [3]: 200^b AU/mL
Activity of mutacin against L. monocytogenes ATCC 700302 ScottA [4]: 200^b AU/mL
Activity of mutacin against S. aureus ATCC 25923 (S. aureus ATCC 25923): 0 AU/mL
Activity of mutacin against S. aureus R621 (S. aureus R621): 0 AU/mL
Activity of mutacin against S. aureus ATCC 43300 (S. aureus ATCC 43300): 0 AU/mL
Activity ([5]; step: C18 RP-HPLC (purified), spot test on M. luteus ATCC 272, two-fold dilutions): 16000 AU/mL
Specific activity (final, purified mutacin) ([5]; step: C18 RP-HPLC, per mg total protein (BioRad DC assay)): 3.2 × 10^5 AU/mg
Specific activity ([5]; step: Sep-Pak C18, per mg total protein (BioRad DC assay)): 101 AU/mg
Activity ([5]; step: Sep-Pak C18, spot test on M. luteus ATCC 272, two-fold dilutions): 3200 AU/mL
Activity ([5]; step: culture supernatant (crude preparation), spot test on M. luteus ATCC 272, two-fold dilutions in acidified (pH 2) peptone water): 400 AU/mL
Specific activity ([5]; step: culture supernatant, per mg total protein (BioRad DC assay)): 40 AU/mg
Viable count of M. luteus ATCC 272 after addition of purified mutacin ([6]; 160 AU/mL (1 mL of 1600 AU/mL, pH 7.0, added to 10 mL early-log culture in TSBYE), 37°C, followed up to 24 h, CFU/mL by plating): dropped to zero
Mode of action (bactericidal or not) ([6]; 160 AU/mL, M. luteus ATCC 272, 24 h incubation): bactericidal
Activity of mutacin against L. murrayi HPB 30 (L. murrayi HPB 30): 200^b AU/mL
Elution gradient at which active fractions were recovered (methanol in 10 mM HCl) [7]: 50%-60%
Activity of mutacin against Streptococcus salivarius ATCC 25923 (Streptococcus salivarius): 800 AU/mL
Activity of mutacin against Bacillus subtilis ATCC 6051 [8]: 400 AU/mL
Activity of mutacin against Streptococcus suis serotype 2 [9]: 0 AU/mL
Activity of mutacin against Lactococcus lactis ATCC 11454 [10]: 400 AU/mL
Activity of mutacin against Staphylococcus carnosus (Staphylococcus carnosus): 800 AU/mL
Activity of mutacin against Streptococcus pyogenes ATCC 10389 [11]: 0 AU/mL
Activity of mutacin against Enterococcus faecium ATCC 19434 [12]: 1600 AU/mL
Activity of mutacin against Listeria monocytogenes ATCC 15313 [13]: 200^b AU/mL
Activity of mutacin against Staphylococcus aureus ATCC 6538 [14]: 0 AU/mL
Activity of mutacin against Listeria murrayi ATCC 25420 [15]: 200^b AU/mL
Activity of mutacin against Pediococcus acidilactici UL5 [16]: 800 AU/mL
Activity of mutacin against Enterococcus faecalis ATCC 27235 [17]: 200 AU/mL
Activity of mutacin against Listeria ivanovii HPB 28 (Listeria ivanovii HPB 28): 200 AU/mL
Activity of mutacin against Micrococcus luteus ATCC 272 [18]: 3200 AU/mL
Activity of mutacin against Listeria grayi ATCC 19120 [19]: 200 AU/mL
Activity of mutacin against Lactobacillus salivarius SMQ 876 [20]: 0 AU/mL
Activity of mutacin against Bacillus cereus ATCC 2 (Bacillus cereus ATCC 2): 400 AU/mL
Activity of mutacin against Streptococcus sobrinus ATCC 27352 [21]: 800 AU/mL
Activity of mutacin against Enterococcus hirae ATCC 8043 [22]: 200 AU/mL
